Experimental data taken from patent publication US20190290728A1, “METHODS RELATED TO BREAKING T CELL EXHAUSTION” (CHILDREN'S MEDICAL CENTER CORPORATION, priority 2016, published 2019).

Tested on: Jurkat cells expressing TMEM16F-RFP
Assay: TIRF live imaging of TMEM16F-positive vesicle movement at the TCR activation site
Assay type: cell-based
Conditions: Jurkat cells pretreated with 1 μM inhibitor for 30 min, stimulated on αCD3-coated coverslips, TIRF microscopy (FIGS. 7D, 7E)
Text: TMEM16F is recruited to the immunological synapse and resides in late endosomes. To elucidate the molecular mechanism how TMEM16F controls T cell activation, its cellular localization and function were tracked. To this end, T cells transduced with fluorescent TMEM16F were cocultured with antigen-presenting B cells. […] Of note, TMEM16F appeared mainly in intracellular structures instead of the plasma membrane (FIG. 7A). […] In order to test the mechanics of TMEM16F-positive vesicle movement, TIRF live imaging was performed while modulating the functions of the cytoskeleton. […] By contrast, treatment with nocodazole that disrupts the microtubule network reduced migration of TMEM16F vesicles, indicating the movement of TMEM16F was largely mediated by microtubules but not actin (FIGS. 7D and 7E).
TIRF Microscopy. Sample preparation for TIRF microscopy was performed as previously reported with minor modifications (Bunnell et al., 2003). […]
Image Processing. […] The number of TMEM16F-positive spots was plotted using Prism 6.0™ Quantifications of LBPA-positive vesicles, LAT-GFP, and SH2-ZAP70-mCherry were done similarly. Intensity of SH2-ZAP70-mCherry was determined using intensity vs. time plug-in. For the colocalization of TMEM16F and Rab proteins, fluorescence intensity for each protein was measured on a line manually drawn along TMEM16F-positive vesicles, and values (pixel) were plotted. […]

SMILES | recruitment of TMEM16F to the T cell activation site / migration of TMEM16F vesicles
Cc1ccc2c(c1)C(=O)C1(O)CCN(c3ccccc3)C1=N2 (centres unmarked) [blebbistatin] | did not alter
COC(=O)Nc1nc2ccc(C(=O)c3cccs3)cc2[nH]1 [nocodazole] | reduced
